Data set [1] in a line: Cyclic voltammetry of copper(II)–ligand (1:1) systems. Conditions: cL = cCu(II) = 1 mM, pH 7.40, 25 °C, 90% (v/v) DMSO/H2O, 0.01 V/s scan rate. It counts as physicochemical. The method, then:
Cyclic voltammograms for the Fe(III) and Cu(II) complexes were recorded in 90% (v/v) DMSO/water solution containing 1 mM ligand and 0.5 mM FeCl3 or 1 mM CuCl2 using a conventional three-electrode system under nitrogen atmosphere and a PC-Controlled Electrochemical Measurement System (EF 451). The ionic strength was 0.10 M, adjusted by TBAN. Samples were purged for 15 min with Ar before recording the cyclic voltammograms. Platinum electrodes were used as the working and auxiliary electrodes, and Ag/AgCl (3 M KCl) was applied as the reference electrode. The electrochemical potentials were converted into the normal hydrogen electrode (NHE) scale by adding 0.222 V. The instrument was calibrated with an aqueous solution of K3[Fe(CN)6] (E1/2 = +0.386 V vs. NHE). Redox potentials were obtained at different scan rates (5–25 mV/s) in the range of −0.8 to +0.1 V. The dependence of the peak current values of the square root of the scan rates is shown in Figure S5 for the iron and copper complexes of COTI-NMeCy.

Data set [2] in a line: Thermodynamic solubility in water at pH 7.4 (UV-vis). It counts as physicochemical. The settings on record: water at pH 7.4 (20 mM HEPES buffer), aqueous buffer, thermodynamic from solid, water pH 7.4 (20 mM HEPES), 25 °C, read-out: S (meas.). How it is done:
The thermodynamic solubility of COTI-NMeCy, COTI-Nme2, COTI-NH2, and COTI-2 was measured for the saturated solutions in water at pH 7.4 (20 mM HEPES buffer) at 25.0 ± 0.1 °C. The concentrations of the compounds were determined by UV-vis spectrophotometry using stock solutions of the compounds with known concentrations dissolved in pure DMSO, and 50% and 1% (v/v) DMSO/buffered aqueous solution for the calibration. The parallel artificial membrane permeability assay (PAMPA) was applied for the ligands with a Corning Gentest pre-coated PAMPA Plate System. Peff values were calculated according to the equation reported by Yu et al..

A short description of data set [3]: pKa by UV-vis spectrophotometric titrations. It counts as physicochemical. Conditions: 30% (v/v) DMSO/H2O solution, I = 0.1 M (KCl), 25 °C. The method, then:
(§1) The UV-vis spectra were recorded using an Agilent Cary 8454 diode array spectrophotometer in the 200 to 950 nm window, and the path length was varied between 1 and 5 cm, depending on the solubility (thus the applicable concentration). For the spectrophotometric titrations, the same instruments (Metrohm 665 Dosimat burette, Orion 710A pH-meter, Metrohm combined pH glass electrode) and experimental setup (ionic strength: 0.10 M (KCl); titrant: 0.10 M carbonate-free KOH solution in 30% (v/v) DMSO/H2O; samples: prepared in 30% (v/v) DMSO/H2O; calibration: method of Irving et al.; pH range: 1.0 to 13.5; and sample volume: 10 cm^3) were used as in our previous work. Argon overpressure was used for the Fe(II)-containing samples when the Fe(II) stock solution was added to the samples in tightly closed titration vessels, which were previously completely deoxygenated (for 20 min). Measurements were taken with ligands (10–80 μM, depending on solubility) in the presence of 1, 0.5, and 0.3 equiv. of Cu(II), Fe(II), and Fe(III) ions. Equilibrium constants, such as the proton dissociation constants (pKa) of the ligands, the overall stability constants (logβ) of the metal complexes, and the UV-vis spectra of the individual ligand or complex species were computed using the program PSEQUAD [18], as was the case in our previous works.

Data set [4] can be described thus: Iron(II) complex formation, UV-vis spectrophotometric titrations (anaerobic). It counts as physicochemical. The settings on record: for pFe(II): –log[free Fe(II)] calculated at cFe = 1 μM, cL = 10 μM, pH = 7.40. The method, then:
as §1

Data set [5] is described as follows: Zinc(II) complex formation, UV-vis spectrophotometric titrations. Conditions: for pZn: calculated at cM = 1 μM, cL = 10 μM, pH = 7.40. The class given is physicochemical.
Another data set has as its system SW480 cells. The data set can be described thus: MTT viability assay in combination with copper chelator TTM. The class given is cell-based, human. The settings on record: TTM 1 µM and 5 µM, 72 h. How it is done:
For the cytotoxicity, cell viability, and proliferation studies, the 3-(4,5-dimethylthiazol-2-yl)-2,5-diphenyltetrazolium bromide (MTT) assay was utilized. Cells were seeded in 96-well plates at a density of 2 × 10^4 cells/well, with the exception of SW480/Tria, which was used at a density of 3 × 10^4 cells/well. After 24 h of recovery, cells were treated with the indicated concentration of drugs. For the drug combination experiments, verapamil and cyclosporine A (CSA) were used as […] modulators, and tetrathiomolybdate (TTM) was used as a copper chelator. The TSCs were dissolved in DMSO followed by subsequent dilutions in the medium in order to maintain a final DMSO concentration of <1%. After 72 h, the treatment solution was removed and replaced with 100 µL of MTT solution (EZ4U, Biomedica, Vienna, Austria), which was diluted 1:10 in the growth medium. A TECAN Infinite 200 Pro plate reader was used to measure the absorbance of the solution after 2–3 h incubation at 5% CO2 in an incubator at 37 °C. The anticancer activity was determined with GraphPad Prism software and indicated as IC50 values (half maximum inhibitory concentration).
A general note: Tetrazolium assays rely on reduction of a dye to a coloured formazan, in cell work by metabolically active cells.

Data set [6] in a line: Copper(II) complex formation, UV-vis titrations and EDTA competition. The class given is physicochemical. Conditions: for pCu: calculated at cM = 1 μM, cL = 10 μM, pH = 7.40; for logβ5.9′ [CuL]^+: conditional stability constant, EDTA competition at pH = 5.90; for logβ [CuL]^+: β = β’ × αH, [H+] = 10^–5.90 M. The method, then:
as §1
The conditional stability constants (β’) of the Cu(II) complexes were calculated from competition reactions with EDTA at pH = 5.9 using MES (50 mM) when the metal:ligand ratio was 1:1 (clig = cCu between 10 and 80 μM). Individual samples were prepared in which the ligand:EDTA ratio was variable between 1:0 and 1:50. After a 3 h incubation period, UV-vis spectra were collected. The calculation of the β’ (CuL) values was performed following the same method as that in our previous work using the logβ’5.90 = 13.89 of complex [Cu(EDTA)]^2− obtained from the previously reported equilibrium constants of EDTA and its Cu(II) complex.

[7] abbreviates: T = 25.0 °C, I = 0.10 M (KCl), 30% (v/v) DMSO/H2O.

Structures are written as SMILES. Values after ≈ are worked out from the molar mass of the structure shown. Like-named read-outs stand apart in the source and are kept apart here.

As for `CN(C)C(=S)NN=C1CCCc2cccnc21` (mixture of isomers) [COTI-NMe2, 2-(6,7-Dihydroquinolin-8(5H)-ylidene)-N^4,N^4-dimethylhydrazine-1-carbothioamide], the “E′ vs. NHE, copper(II)–ligand (1:1) systems” value (“E′ vs. NHE, copper(II)–ligand” for short) in data set [1] is on record as -0.24 V. Besides, in data set [2], the solubility thermodynamic is 417 µM. Moreover, in data set [3] (read-out: pKa (H2L)), the pKa was found to be 3.65 ± 0.01. Moreover, the pKa in data set [3] (read-out: pKa (HL)) was found to be 12.09 ± 0.01. In data set [4] (setting [7]), the “logβ [Fe(II)L2]” value worked out at 31.33 ± 0.09 and the “logβ [Fe(II)L]^+” value turned out to be 17.62 ± 0.03. Also, the “pFe(II)” value in data set [4] is recorded as 17.8. In data set [5] (setting [7]), the “logβ [ZnL2]” value is listed as 25.24 ± 0.08 and the “logβ [ZnL]^+” value is reported as 13.02 ± 0.04. The pZn in data set [5] was 11.7. Further, the “impact of copper chelator TTM on anticancer activity” value (from here on “impact of copper chelator TTM”) in the data set with SW480 cells is reported as “strong protective activity”. For the same molecule, in data set [6], the pCu is on record as 14.7, the “logβ5.9′ [CuL]^+” value was found to be 12.23 ± 0.05 and the “logβ [CuL]^+” value is 18.42.

With `S=C(N/N=C1\CCCc2cccnc21)N1CCN(c2ccccn2)CC1` [COTI-2, 4-(pyridine-2-yl)-N-([(8E)-5,6,7,8-tetrahydroquinolin-8-ylidene]amino)piperazine-1-carbothioamide], in data set [1], the “E′ vs. NHE, copper(II)–ligand” value was -0.19 V. The solubility thermodynamic in data set [2] was 0.41 µM (≈ 0.15 µg/mL). Also, the pKa in data set [3] (read-out: pKa (H2L)) stood at 5.08 ± 0.01. In data set [3] (read-out: pKa (H3L)), the pKa amounted to 3.23 ± 0.01. For the same molecule, the pKa in data set [3] (read-out: pKa (HL)) amounted to 10.97 ± 0.01. In addition, in data set [4] (setting [7]), the “logβ [Fe(II)L2H2]^2+” value worked out at 41.18 ± 0.06, the “logβ [Fe(II)L2H]^+” value was found to be 36.74 ± 0.09, the “logβ [Fe(II)L2]” value is given as 30.63 ± 0.09 and the “logβ [Fe(II)LH]^2+” value amounted to 21.00 ± 0.03. The “logβ [Fe(II)L]^+” value in data set [4] (setting [7]) is reported as 18.28 ± 0.06. The “pFe(II)” value in data set [4] is 19.3. Also, in data set [5] (setting [7]), the “logβ [ZnL2]” value came to 23.23 ± 0.08, the “logβ [ZnLH]^2+” value was 18.54 ± 0.02 and the “logβ [ZnL]^+” value was determined as 12.85 ± 0.02. The pZn in data set [5] is on record as 11.9. Besides, the “free ligand in the presence of zinc(II)” value in data set [5] (calculated distribution, 1 µM COTI-2, 2:1 ligand:zinc(II), pH 7.4) is recorded as 10–20%. In addition, the “impact of copper chelator TTM” value with SW480 cells is given as “strong protective activity”. Also, in data set [6], the pCu is listed as 15.6, the “logβ5.9′ [CuL]^+” value is recorded as 13.06 ± 0.02 and the “logβ [CuL]^+” value worked out at 18.19.

Take `CN(C(=S)N/N=C1\CCCc2cccnc21)C1CCCCC1` [COTI-NMeCy, N-Cyclohexyl-2-(6,7-dihydroquinolin-8(5H)-ylidene)-N^4-methylhydrazine-1-carbothioamide]: the “E′ vs. NHE, copper(II)–ligand” value in data set [1] is -0.22 V. The solubility thermodynamic in data set [2] amounted to 3.9 µM (≈ 1.23 µg/mL). The pKa in data set [3] (read-out: pKa (H2L)) stood at 3.47 ± 0.01. In addition, the pKa in data set [3] (read-out: pKa (HL)) was found to be 12.4 ± 0.01. Moreover, in data set [4] (setting [7]), the “logβ [Fe(II)L2]” value came out at 31.04 ± 0.03 and the “logβ [Fe(II)L]^+” value was 18.66 ± 0.03. In addition, the “pFe(II)” value in data set [4] was 16.9. In addition, in data set [5] (setting [7]), the “logβ [ZnL2]” value came out at 26.32 ± 0.09 and the “logβ [ZnL]^+” value came to 12.94 ± 0.04. Besides, the pZn in data set [5] is reported as 12.1. Moreover, the “impact of copper chelator TTM” value in the data set with SW480 cells is listed as “strong protective activity”. In data set [6], the pCu was 15.0, the “logβ5.9′ [CuL]^+” value was found to be 12.56 ± 0.09 and the “logβ [CuL]^+” value is reported as 19.08.

The record behind these values is paper PMC9497102, “Thiosemicarbazone Derivatives Developed to Overcome COTI-2 Resistance” (Cancers, 2022).
